In the NIST ThermoML archive (doi:10.1016/j.jct.2015.11.012):

Test: xn = mol fraction of the nth substance listed
Settings: 100 kPa, Liquid; for viscosity: Capillary tube (Ostwald / Ubbelohde) method; for speed of sound: Frequency=2 MHz, Linear variable-path acoustic interferometer; for mass density: Vibrating tube method

OCCCl [1-chloro-2-hydroxyethane] + Nc1cccc(Cl)c1
Settings | mass density [kg/m3] | speed of sound [m/s] | viscosity [mPa·s]
303.15 K, x2 = 0 | 1192.12 | 1342.8 | 2.578
303.15 K, x2 = 0.0844 | 1194.38 | 1365.5 | 2.728
303.15 K, x2 = 0.1759 | 1196.5 | 1388.6 | 2.888
303.15 K, x2 = 0.2675 | 1198.32 | 1410 | 3.046
303.15 K, x2 = 0.3622 | 1199.9 | 1430.2 | 3.207
303.15 K, x2 = 0.4808 | 1201.48 | 1452.7 | 3.408
303.15 K, x2 = 0.5814 | 1202.58 | 1469.7 | 3.576
303.15 K, x2 = 0.6862 | 1203.51 | 1484.7 | 3.749
303.15 K, x2 = 0.7938 | 1204.28 | 1498 | 3.925
303.15 K, x2 = 0.8902 | 1204.84 | 1508.2 | 4.081
308.15 K, x2 = 0 | 1186.63 | 1328.5 | 2.259
308.15 K, x2 = 0.0844 | 1189.08 | 1351.3 | 2.402
308.15 K, x2 = 0.1759 | 1191.33 | 1374.1 | 2.553
308.15 K, x2 = 0.2675 | 1193.26 | 1395.1 | 2.703
308.15 K, x2 = 0.3622 | 1194.92 | 1415 | 2.855
308.15 K, x2 = 0.4808 | 1196.62 | 1437.1 | 3.045
308.15 K, x2 = 0.5814 | 1197.79 | 1454 | 3.203
308.15 K, x2 = 0.6862 | 1198.8 | 1469.2 | 3.367
308.15 K, x2 = 0.7938 | 1199.65 | 1482.5 | 3.532
308.15 K, x2 = 0.8902 | 1200.24 | 1492.7 | 3.679
313.15 K, x2 = 0 | 1178.05 | 1315.5 | 1.852
313.15 K, x2 = 0.0844 | 1181.05 | 1337.6 | 1.995
313.15 K, x2 = 0.1759 | 1183.78 | 1359.6 | 2.147
313.15 K, x2 = 0.2675 | 1186.13 | 1379.6 | 2.296
313.15 K, x2 = 0.3622 | 1188.2 | 1398.4 | 2.448
313.15 K, x2 = 0.4808 | 1190.36 | 1419.6 | 2.636
313.15 K, x2 = 0.5814 | 1191.88 | 1435.7 | 2.795
313.15 K, x2 = 0.6862 | 1193.24 | 1450.5 | 2.958
313.15 K, x2 = 0.7938 | 1194.4 | 1463.3 | 3.123
313.15 K, x2 = 0.8902 | 1195.27 | 1472.8 | 3.269
318.15 K, x2 = 0 | 1170.87 | 1301.2 | 1.564
318.15 K, x2 = 0.0844 | 1173.91 | 1323.6 | 1.698
318.15 K, x2 = 0.1759 | 1176.26 | 1345.1 | 1.84
318.15 K, x2 = 0.2675 | 1178.79 | 1365.6 | 1.978
318.15 K, x2 = 0.3622 | 1181.24 | 1384.1 | 2.118
318.15 K, x2 = 0.4808 | 1184.01 | 1404.8 | 2.292
318.15 K, x2 = 0.5814 | 1185.85 | 1420.8 | 2.438
318.15 K, x2 = 0.6862 | 1187.52 | 1435.5 | 2.589
318.15 K, x2 = 0.7938 | 1189.32 | 1448.6 | 2.741
318.15 K, x2 = 0.8902 | 1190.2 | 1458 | 2.874
